Assay results published in patent publication US20060269907A1, “Decontamination of biological fluids using diphenylpyrilium compounds” (priority 2003, published 2006).
Like-named read-outs stand apart in the source and are kept apart here.

Key:
Y. enterocolitica = experiment: Bacterial photoinactivation in red cell suspensions; assay type: cell-based
S. aureus = experiment: as above; assay type: cell-based
[1] = tested on: gram positive and gram negative organisms; assay type: cell-based
intracellular VSV = assay type: cell-based, Vesicular Stomatitis Virus
P. fluorescens = assay type: cell-based
D. radiodurans = experiment: Bacterial photoinactivation in red cell suspensions; assay type: cell-based; details: 160 μM compound 2; RBCs 20% hematocrit in Erythrosol; 2 min 8.9 mW/cm^2 red light
S. epidermidis = assay type: cell-based
S. marcescens = assay type: cell-based
S. liquefaciens = assay type: cell-based
extracellular VSV = assay type: cell-based, Vesicular Stomatitis Virus
red cells [2] = tested on: red cells
E. coli = experiment: Bacterial photoinactivation in red cell suspensions; assay type: cell-based
red blood cells = details: cited from earlier work
extracellular BVDV = assay type: cell-based
all tested viruses = assay type: cell-based
RBCs [3] = details: n = 4
intracellular HIV = experiment: Photoinactivation of intracellular HIV in RBC suspensions; assay type: cell-based, HIV-1; details: 80 μM TP; 200 μM DP; 20-percent hct RBCs in Erythrosol; 1.1 J/cm^2 light
red cells [4] = details: n=10
extracellular DHBV = experiment: Photoinactivation of extracellular DHBV in RBC suspensions; assay type: cell-based; details: 10 μM TP; 200 μM DP; 20-percent hct RBCs in Erythrosol; 1.1 J/cm^2 light
extracellular HIV = experiment: Photoinactivation of extracellular HIV in RBC suspensions; assay type: cell-based, HIV-1; details: 80 μM TP; 200 μM DP; 20-percent hct RBCs in Erythrosol; 1.1 J/cm^2 light
extracellular PRV = assay type: cell-based, Pseudorabies virus
RBCs [5] = experiment: Spectroscopic assay of TP binding to RBCs; details: 200 μM DP; 160 μM TP; 20-percent hct RBCs in Erythrosol
[6] = 160 μM compound 2, RBCs 20% hematocrit in Erythrosol, 2 min 8.9 mW/cm^2 red light
[7] = 100 μM TP, 200 μM DP and 1.1 J/cm^2 red light, 20% hct RBCs in Erythrosol, n = 4

For `Cc1cc(-c2ccc(N(C)C)cc2)cc(-c2ccc(N(C)C)cc2)[s+]1` [Compound 2, 2′,4′-bis(4-N,N-dimethylaminophenyl) 6′-methylthiopyrilium iodide], the log10 inactivation (Y. enterocolitica; [6]) was greater than 7.5 log10, the log10 inactivation (S. aureus; [6]) was greater than 6.8 log10 and the “bacteria remaining after inactivation (limit of detection)” value [1] was less than 1 CFU/mL. For the same molecule, the “log10 inactivation of intracellular VSV” value (intracellular VSV) was 4.0 log10, the “log10 VSV inact. (intracellular)” value (intracellular VSV; 160 μM) was greater than 5 log10 and the log10 inactivation (P. fluorescens) was greater than 7.7 log10. It also gave a log10 inactivation (D. radiodurans) greater than 7.9 log10, a log10 inactivation (S. epidermidis) greater than 7.9 log10 and a log10 inactivation (S. marcescens) greater than 6.9 log10. The log10 inactivation (S. liquefaciens) was greater than 7.4 log10, the “log10 inactivation of extracellular VSV” value (extracellular VSV) was greater than 7 log10 and the “Log10 VSV inact. (extracellular)” value (extracellular VSV; 10 μM) was 1.3 log10. The “Log10 VSV inact. (extracellular)” value (extracellular VSV; 20 μM) was 2.2 log10, the “Log10 VSV inact. (extracellular)” value (extracellular VSV; 30 μM) was 2.7 log10 and the “Log10 VSV inact. (extracellular)” value (extracellular VSV; 60 μM) was 4.8 log10. The “Log10 VSV inact. (extracellular)” value (extracellular VSV; 90 μM) was 5.7 log10, the “Log10 VSV inact. (extracellular)” value (extracellular VSV; 160 μM) was greater than 7 log10 and the hemolysis (red cells [2]) was less than 1%. The “Hemolysis (%) (day 42)” value (red cells [2]; 160 μM) was 0.45% and the log10 inactivation (E. coli; [6]) was greater than 7.9 log10.
For `Cc1cc(=[N+](C)C)cc2sc3cc(N(C)C)cc(C)c3nc1-2.[Cl-]` [dimethylmethylene blue], the hemolysis (red blood cells; dye and light, after 6 week refrigerated storage in ADSOL) is given as “roughly 25%”, the hemolysis (red blood cells; following 6 weeks of 1-6° C. storage in Erythrosol) is given as “about 2%” and the hemolysis (red blood cells; six weeks of 1-6° C. storage in Erythrosol, RBCs pre-incubated with quinacrine) is given as “approximately 1.2%”.
With `Cc1cc(-c2ccc(N(C)C)cc2)cc(-c2ccc(N(C)C)cc2)[s+]1.[I-]` [Compound 2, 2′,4′-bis(4-N,N-dimethylaminophenyl) 6′-methylthiopyrilium iodide] the “log10 inactivation of extracellular BVDV” value (extracellular BVDV) was greater than 6 log10, the “inactivation of all tested viruses” value (all tested viruses) was “inactivated to the limit of assay detection” and the “log10 inactivation” value (Y. enterocolitica; [7]) was 5.9 ± 0.6 log10. For the same molecule, the “log10 inactivation” value (S. aureus; [7]) was greater than 6.3 log10, the “log10 inactivation of 5 of 7 tested organisms” value [1] was greater than 6 log10 and the “log10 inactivation of all tested organisms” value [1] was greater than 4 log10. For the same molecule, the ATP level (RBCs [3]) was 2.63±0.07 μmole/g Hb, the morphology score (RBCs [3]) was 94.5±1.5 and the “log10 inactivation” value (P. fluorescens; n = 4) was 5.4 ± 1.0 log10. The “log10 inactivation of intracellular HIV” value (intracellular HIV) was 6.2±0.1 log10, the “log10 inactivation” value (S. epidermidis; n = 4) was greater than 7.6 log10 and the “potassium in the supernatant” value (red cells [4]) was 16.6 ± 4.2 mM. The “potassium released to the supernatant” value (red cells [4]) was 38.4 ± 4.4 mM, the “log10 inactivation” value (S. marcescens; n = 4) was 6.2 ± 1.0 log10 and the “log10 inactivation of extracellular DHBV” value (extracellular DHBV) was greater than 5.8 log10. The “log10 inactivation” value (S. liquefaciens; n = 4) was greater than 7.1 log10, the “log10 inactivation of extracellular VSV” value (extracellular VSV) was greater than 8.4 log10 and the “log10 inactivation of extracellular HIV” value (extracellular HIV) was greater than 7.5 log10. For the same molecule, the “hemolysis following 42 day 1-6° C. storage” value (red cells [2]; n=10) was 0.29%, the “log10 inactivation” value (E. coli; [7]) was 7.1 ± 0.5 log10 and the “log10 inactivation of extracellular PRV” value (extracellular PRV) was greater than 6.3 log10.
With `OCCN(CCO)c1nc(N2CCCCC2)c2nc(N(CCO)CCO)nc(N3CCCCC3)c2n1` [dipyridamole, reference compound] the “TP binding sites in RBCs blocked by DP” value (RBCs [5]) was “approximately 36%”.
